These results are taken from US11845749B1, “Substituted pyrido[4′,3′:5,6]pyrazino[1,2-a]indoles as anticancer agents” (KING FAISAL UNIVERSITY, priority 2023, dated 2023).

One experiment has as its system MIAPaCa-2 (pancreas). The experiment in a line: In vitro cytotoxic activity (MTT) assay, MIAPaCa-2. The note with it: Homo sapiens, MIA PaCa-2, cells exposed for 96 hours, read-out: IC50, 50% inhibition of cell proliferation. It is filed as cell-based. As to the method:
(§1) Compounds 1-12 were screened for their in vitro cytotoxic activity utilizing a 3-(4,5-dimethyl-thiazol-2-yl)-2,5-diphenyltetrazolium bromide (MTT) assay against selected cancer human cell lines consisting of PC3 (prostate), HCT116 (colon), A375 (melanoma), H1299 (lung), MIAPaCa-2 (pancreas), HL60 (leukemia), MCF7 (breast), MDA-MB-231 (breast) (T. Mosmann, J. Immunol. Meth., 1983, 65, 55-63). The cells were cultured at 37° C. in RMPI1640 medium supplemented with 10% fetal bovine serum, 50 IU/mL penicillin, and 50 μg/mL streptomycin in a 5% CO2 incubator. All cells were sub-cultured 3 times/week by trypsinisation. Viable cells were seeded and allowed to adhere for 12 h before a test drug was added in 96-well plates at an initial density of 1.0×10^5 cells/mL. Tumour cell lines were separately exposed to various concentrations of the tested compounds followed by incubation at a temperature of 37° C. during 96 h inside a medium of fresh RMPI 1640. Cells were subsequently incubated at 37° C. using MTT at 0.5 mg/mL during 4 h. After removal of supernatant, formazan crystals were dissolved in isopropanol and the optical density was measured at 570 nm. CX-4945 was used as a positive control.

The test system of the next experiment is HL60 (leukemia). In words: In vitro cytotoxic activity (MTT) assay, HL60. It counts as cell-based. The note with it: Homo sapiens, HL-60, cells exposed for 96 hours, read-out: IC50, 50% inhibition of cell proliferation. How it is done:
as §1

Another experiment deals with T1, recombinant human CK2 (Homo sapiens, UniProt P68400).
T1 construct: purchased Millipore
T1 sequence (P68400 whole entry): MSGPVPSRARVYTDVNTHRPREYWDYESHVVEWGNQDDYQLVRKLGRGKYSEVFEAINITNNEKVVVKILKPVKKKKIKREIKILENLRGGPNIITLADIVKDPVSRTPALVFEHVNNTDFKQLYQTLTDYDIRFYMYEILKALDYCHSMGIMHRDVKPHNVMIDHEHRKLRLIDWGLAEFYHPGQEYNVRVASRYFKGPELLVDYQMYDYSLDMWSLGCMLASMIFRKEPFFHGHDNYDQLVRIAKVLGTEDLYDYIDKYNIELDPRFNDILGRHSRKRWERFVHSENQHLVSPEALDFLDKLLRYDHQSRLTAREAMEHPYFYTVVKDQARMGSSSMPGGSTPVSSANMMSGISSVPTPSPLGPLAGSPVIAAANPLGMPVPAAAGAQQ
T1 sequence (P67870 whole entry partner): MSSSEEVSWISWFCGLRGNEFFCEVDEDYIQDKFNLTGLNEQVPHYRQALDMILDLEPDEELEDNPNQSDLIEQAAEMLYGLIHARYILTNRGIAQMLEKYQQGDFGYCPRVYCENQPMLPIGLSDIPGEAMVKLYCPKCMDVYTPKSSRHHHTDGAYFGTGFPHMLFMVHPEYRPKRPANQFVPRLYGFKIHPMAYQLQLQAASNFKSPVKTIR
In words: CK2 Kinase Assay (33P-ATP, filter plate). It counts as biochemical. The note with it: final ATP concentration 15 μM, 10 min at 30° C.; read-out: protein kinase CK2 IC50. How it is done: CK2 Kinase Assay was conducted using the protocol as described in Pierre F. et al; J. Med. Chem. 2011, 54, 635-654. The tested compounds in aqueous solution were added at a volume of 10 μL to a reaction mixture comprising 10 μL of assay dilution buffer (ADB; 20 mM MOPS, pH 7.2, 25 mM β-glycerol phosphate, 5 mM EGTA, 1 mM sodium orthovanadate, and 1 mM dithiothreitol), 10 μL of substrate peptide (RRRDDDSDDD, dissolved in ADB at a concentration of 1 mM), 10 μL of recombinant human CK2 (RRfββ-holoenzyme, 25 ng dissolved in ADB; Millipore). Reactions were initiated by the addition of 10 μL of ATP solution (90% 75 mMMgCl2, 75 μM ATP (final ATP concentration:15 μM) dissolved in ADB; 10% [γ-33P] ATP (stock 1mCi/100 μL; 3000 Ci/mmol (Perkin-Elmer) and maintained for 10 min at 30° C. The reactions were quenched with 100 μL of 0.75% phosphoric acid and then transferred to and filtered through a phosphor cellulose filter plate (Millipore). After washing each well five times with 0.75% phosphoric acid, the plate was dried under vacuum for 5 min and, following the addition of 15 μL of scintillation fluid to each well, the residual radioactivity was measured using a Wallac […]. The IC50 values were derived from eight concentrations of test inhibitors.

Another experiment concerns HCT116 (colon). The experiment in a line: In vitro cytotoxic activity (MTT) assay, HCT116. It counts as cell-based. The note with it: Homo sapiens, HCT-116, cells exposed for 96 hours, read-out: IC50, 50% inhibition of cell proliferation. How it is done:
as §1

Another experiment concerns H1299 (lung). In words: In vitro cytotoxic activity (MTT) assay, H1299. It counts as cell-based. The note with it: Homo sapiens, NCI-H1299, cells exposed for 96 hours, read-out: IC50, 50% inhibition of cell proliferation. As to the method: as §1
Another experiment has as its system A375 (melanoma). The experiment in a line: In vitro cytotoxic activity (MTT) assay, A375. The note with it: Homo sapiens, A-375, cells exposed for 96 hours, read-out: IC50, 50% inhibition of cell proliferation. It counts as cell-based. As to the method: as §1
The test system of the next experiment is PC3 (prostate). In words: In vitro cytotoxic activity (MTT) assay, PC3. The note with it: Homo sapiens, Prostate cell, cells exposed for 96 hours, read-out: IC50, 50% inhibition of cell proliferation. It is filed as cell-based. As to the method:
as §1

The next experiment concerns MCF7 (breast). In words: In vitro cytotoxic activity (MTT) assay, MCF7. The note with it: Homo sapiens, cells exposed for 96 hours, read-out: IC50, 50% inhibition of cell proliferation. It is filed as cell-based. As to the method: as §1
A further experiment deals with MDA-MB-231 (breast). The experiment in a line: In vitro cytotoxic activity (MTT) assay, MDA-MB-231. The note with it: Homo sapiens, cells exposed for 96 hours, read-out: IC50, 50% inhibition of cell proliferation. It counts as cell-based. How it is done: as §1

As to `O=C(O)c1ccc2c(c1)cc1c(Nc3ccc(Cl)cc3)nc3ccncc3n12` [Compound 1, 6-((4-chlorophenyl)amino)pyrido[4′,3′:5,6]pyrazino[1,2-a]indole-9-carboxylic acid], the IC50 in the experiment with MIAPaCa-2 (pancreas) came out at 900 nM; with HL60 (leukemia), 2800 nM; at recombinant human CK2 it was 12 nM; in the experiment on HCT116 (colon), 1900 nM; with H1299 (lung), 3100 nM; with A375 (melanoma), 2500 nM. Also, the IC50 in the experiment on PC3 (prostate) came out at 1600 nM; in the experiment on MCF7 (breast), 7800 nM; with MDA-MB-231 (breast), 6100 nM.
